The values that follow come from patent US20240226117A1, “TREATMENT OF CONGENITAL ADRENAL HYPOPLASIA” (ReveraGen BioPharma, Inc., priority 2021, published 2024).

Series [1] concerns ambulant boys with DMD. Description: VBP15-004 bone turnover biomarkers. In kind it is in vivo, human. The conditions noted are these: for Osteocalcin, difference vs. prednisone / Procollagen 1 N-Terminal Propeptide (P1NP), difference vs. prednisone / Type I Collagen C-Telopeptides (CTX), difference vs. prednisone: Week 24, p < 0.001.
Series [2] has as its system ambulant boys with DMD. The experiment in a line: VISION-DMD Phase 2b (VBP15-004) motor efficacy, 24-week double-blind period. In kind it is in vivo, human.
The nature of series [3]: VBP15-002 Phase IIa multiple ascending dose trial: pharmacokinetics and safety. In kind it is in vivo, human. The note with it: DMD patients. As to the method:
Vamorolone clinical studies have been conducted in adult male volunteers and boys with DMD, a disorder in which skeletal muscle is in a chronic inflammatory state. Two consecutive open-label dose-ranging studies in 48 DMD patients aged 4 to <7 years (corticosteroid-naïve) were conducted (Phase IIa, VBP15-002; Phase IIa, VBP15-003). Doses were tested over a 24-fold dose range (0.25, 0.75, 2.0, and 6.0 mg/kg/day), with 12 participants per group. The first multiple ascending dose (MAD) cohort trial-tested pharmacokinetics (PK) and safety for 2 weeks of drug dosing followed by a 2-week washout (VBP15-002). […] All DMD participants completed the MAD study and then continued on the same dose for a 24-week dose-finding (efficacy and safety) extension study (VBP15-003).
Three consecutive clinical trials of vamorolone treatment of DMD were conducted by CINRG (VBP15-002 [NCT02760264]: VBP15-003 [NCT02760277]: VBP15-LTE [NCT03038399]). A total of 48 participants (ages 4 to <7 years) were initially enrolled into VBP15-002, with trial participants completing month 12 of the 24-month VBP15-LTE study.
VBP15-002 (Phase IIa: two weeks on the drug, two weeks off drug) enrolled 48 corticosteroid-naïve participants with DMD, and all 48 participants completed the study and enrolled into VBP15-003 (Phase IIa extension: 24-week treatment). […]

Series [4] has as its system DMD participants. Description: Morning serum cortisol (adrenal suppression). In kind it is in vivo, human. The note with it: 24-week trial. As for the experimental part: Two tests for adrenal insufficiency were used: morning cortisol (before drug) and ACTH stimulation tests. Adrenal suppression was measured via morning serum cortisol levels at Baseline, 12-weeks, and 24-weeks. The ACTH stimulation test was measured at Baseline and 24-weeks. Morning cortisol was measured in the clinic before daily drug administration. Morning cortisol levels were similar at Baseline (˜200 nmol/L) in all groups and remained stable over the 24-week trial in the Placebo Group.

The test system of series [5] is DMD participants. Description: Skeletal maturation by wrist x-ray, VBP15-LTE Month 24. In kind it is in vivo, human. The note with it: for Bone Age difference to Chronologic Age, mean (SD): wrist x-ray at LTE Month 24, n = 39. The text has this: In certain embodiments, the difference between chronological age of the human patient and the bone age of the human patient is reduced. A child's bone age (also called the skeletal age) is assigned by determining which of the standard X-ray images in the atlas most closely match the appearance of the child's bones on the X-ray. A difference between a child's bone age and chronological age might indicate a growth problem. The larger the difference between the bone age of a human patient and their chronological age, the greater the growth problem or disease symptom.
In addition, 39/41 LTE participants had wrist x-ray at Month 24; the mean bone age to chronologic age difference was −1.1 (p<0.001, CI −1.5, −0.7), indicating possible skeletal maturation delay (Table 7).

The next series has as its target T1, glucocorticoid receptor (Homo sapiens, UniProt P04150).
T1 sequence (P04150 1-777): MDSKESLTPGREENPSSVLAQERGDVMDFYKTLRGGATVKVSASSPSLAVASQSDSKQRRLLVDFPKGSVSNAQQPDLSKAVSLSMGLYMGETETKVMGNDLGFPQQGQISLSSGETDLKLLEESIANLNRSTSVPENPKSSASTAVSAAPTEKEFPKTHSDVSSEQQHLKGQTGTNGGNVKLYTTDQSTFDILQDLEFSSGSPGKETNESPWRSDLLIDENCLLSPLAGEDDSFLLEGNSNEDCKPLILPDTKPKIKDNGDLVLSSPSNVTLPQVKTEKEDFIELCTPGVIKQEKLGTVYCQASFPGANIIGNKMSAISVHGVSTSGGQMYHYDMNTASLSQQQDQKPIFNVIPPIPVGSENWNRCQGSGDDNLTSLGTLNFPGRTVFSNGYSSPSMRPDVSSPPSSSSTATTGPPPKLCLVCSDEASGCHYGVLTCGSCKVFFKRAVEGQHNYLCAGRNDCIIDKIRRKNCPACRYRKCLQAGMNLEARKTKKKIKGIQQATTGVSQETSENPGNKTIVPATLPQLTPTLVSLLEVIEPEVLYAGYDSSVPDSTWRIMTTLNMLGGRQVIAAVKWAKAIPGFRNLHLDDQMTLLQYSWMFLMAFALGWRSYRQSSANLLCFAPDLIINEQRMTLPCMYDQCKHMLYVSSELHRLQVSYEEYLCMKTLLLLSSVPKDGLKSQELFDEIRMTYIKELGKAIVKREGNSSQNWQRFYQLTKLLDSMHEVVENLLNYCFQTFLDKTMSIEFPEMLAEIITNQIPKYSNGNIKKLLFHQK
The conditions noted are these: background statement; cited from earlier work.

As for `C[C@@H]1C[C@H]2[C@@H]3CCC4=CC(=O)C=C[C@]4(C)C3=CC[C@]2(C)[C@@]1(O)C(=O)CO` [Vamorolone, 17α,21-dihydroxy-16α-methylpregna-1,4,9(11)-triene-3,20-dione], in the series on ambulant boys with DMD [1] (Vamorolone 2.0 mg, N = 17), the “Osteocalcin, mean (SEM) change at Week 24” value was 8.3 (3.1) ng/ml; the “Procollagen 1 N-Terminal Propeptide (P1NP), mean (SEM) change at Week 24” value is 48 (27) ng/mL; the “Type I Collagen C-Telopeptides (CTX), mean (SEM) change at Week 24” value is 177 (52) pg/mL. Further, in the series with ambulant boys with DMD [1] (Vamorolone 2.0 mg), the “Osteocalcin, difference vs. prednisone” value worked out at 23.5 ng/mL; the “Procollagen 1 N-Terminal Propeptide (P1NP), difference vs. prednisone” value was found to be 182 ng/mL; the “Type I Collagen C-Telopeptides (CTX), difference vs. prednisone” value is reported as 477 pg/mL. For the same molecule, in the series with ambulant boys with DMD [1] (Vamorolone 6.0 mg), the “Osteocalcin, difference vs. prednisone” value worked out at 16.9 ng/mL; the “Procollagen 1 N-Terminal Propeptide (P1NP), difference vs. prednisone” value was 124 ng/mL; the “Type I Collagen C-Telopeptides (CTX), difference vs. prednisone” value is reported as 390 pg/mL. Further, the “TTSTAND after 24 weeks” value in the series on ambulant boys with DMD [2] (vamorolone 6 mg/kg/day group, from 6.0 seconds at baseline) is 4.6 s. Also, the “TTSTAND velocity, 6MWT, TTRW endpoints compared with prednisone” value in the series with ambulant boys with DMD [2] (vamorolone 6 mg/kg/day versus prednisone 0.75 mg/kg/day, 24 weeks) was “no statistically significant differences”. Also, the “TTSTAND velocity, treatment difference versus placebo in change from baseline” value with ambulant boys with DMD [2] (vamorolone 6 mg/kg/day, 24 weeks, p=0.002) was determined as 0.06 rises/second. Also, the dose-limiting toxicities entry in series [3] (0.25-6.0 mg/kg/day, 2 weeks of dosing) is given as “no dose-limiting toxicities”. The drug accumulation result in series [3] (day 1 vs day 14) is “no drug accumulation”. Also, in the series on DMD participants [4] (vamorolone 2.0 mg/kg/day, p=0.002), the “adrenal suppression by morning cortisol, compared with prednisone” value is “less adrenal suppression than prednisone”. For the same molecule, in the series with DMD participants [4] (vamorolone 6.0 mg/kg/day), the “adrenal suppression by morning cortisol, compared with prednisone” value is reported as “not significantly different from prednisone”. Also, the “Bone Age difference to Chronologic Age, mean (SD)” value with DMD participants [5] is given as −1.1 (1.2), yr. For the same molecule, the “Bone Age difference to Chronologic Age, mean (SD)” value with DMD participants [5] (listed as vamorolone) is listed as −1.1 yr. Further, the “LTE Month 24 Bone Age, mean (SD)” value with DMD participants [5] (wrist x-ray, n = 39, chronologic age 8.0 (1.0) yr) is recorded as 6.8 (1.4), n = 39 yr. The “binding to the glucocorticoid receptor” value at glucocorticoid receptor is reported as “potently binds”.
